According to PubChem BioAssay AID1259407 (Chemical Carcinogenesis Research Information System (CCRIS), 2018):
Active and inactive are the calls of the source. How the calls were made is not given here.

Test system: CCRIS mutagenicity, Ames/micronucleus/aberration tests
Experiment: CCRIS mutagenicity studies
[1] = Test System: AMES SALMONELLA TYPHIMURIUM, Strain/Indicator: TA97, Metabolic Activation: NONE, Method: PREINCUBATION
[2] = Test System: AMES SALMONELLA TYPHIMURIUM, Strain/Indicator: TA97, Metabolic Activation: RAT, LIVER, S-9, AROCLOR 1254 (10 OR 30%), Method: PREINCUBATION
[3] = Test System: AMES SALMONELLA TYPHIMURIUM, Strain/Indicator: TA98, Metabolic Activation: NONE, Method: PREINCUBATION
[4] = Test System: AMES SALMONELLA TYPHIMURIUM, Strain/Indicator: TA100, Metabolic Activation: NONE, Method: PREINCUBATION
[5] = Test System: AMES SALMONELLA TYPHIMURIUM, Strain/Indicator: TA1535, Metabolic Activation: HAMSTER, LIVER, S-9, AROCLOR 1254 (10 OR 30%), Method: PREINCUBATION
[6] = Test System: AMES SALMONELLA TYPHIMURIUM, Strain/Indicator: TA1535, Metabolic Activation: NONE, Method: PREINCUBATION
[7] = Test System: AMES SALMONELLA TYPHIMURIUM, Strain/Indicator: TA1535, Metabolic Activation: RAT, LIVER, S-9, AROCLOR 1254 (10 OR 30%), Method: PREINCUBATION

CCC#N
mutagenic call (End Point: IN VITRO CHROMOSOMAL ABERRATIONS, Test System: CHO-LB CELLS, Metabolic Activation: NONE): inactive; negative
mutagenic call (End Point: IN VITRO CHROMOSOMAL ABERRATIONS, Test System: CHO-LB CELLS, Metabolic Activation: RAT, LIVER, S-9, AROCLOR 1254): inactive; negative
mutagenic call (Test System: AMES SALMONELLA TYPHIMURIUM, Strain/Indicator: TA97, Metabolic Activation: HAMSTER, LIVER, S-9, AROCLOR 1254 (10 OR 30%), Method: PREINCUBATION): inactive; negative
mutagenic call [1]: inactive; negative
mutagenic call [2]: inactive; negative
mutagenic call (Test System: AMES SALMONELLA TYPHIMURIUM, Strain/Indicator: TA98, Metabolic Activation: HAMSTER, LIVER, S-9, AROCLOR 1254 (10 OR 30%), Method: PREINCUBATION): inactive; negative
mutagenic call [3]: inactive; negative
mutagenic call (Test System: AMES SALMONELLA TYPHIMURIUM, Strain/Indicator: TA98, Metabolic Activation: RAT, LIVER, S-9, AROCLOR 1254 (10 OR 30%), Method: PREINCUBATION): inactive; negative
mutagenic call (Test System: AMES SALMONELLA TYPHIMURIUM, Strain/Indicator: TA100, Metabolic Activation: HAMSTER, LIVER, S-9, AROCLOR 1254 (10 OR 30%), Method: PREINCUBATION): inactive; negative
mutagenic call [4]: inactive; negative
mutagenic call (Test System: AMES SALMONELLA TYPHIMURIUM, Strain/Indicator: TA100, Metabolic Activation: RAT, LIVER, S-9, AROCLOR 1254 (10 OR 30%), Method: PREINCUBATION): inactive; negative
mutagenic call [5]: inactive; negative
mutagenic call [6]: inactive; negative
mutagenic call [7]: inactive; negative

S=C=Nc1cccc2ccccc12
mutagenic call (Test System: AMES SALMONELLA TYPHIMURIUM, Strain/Indicator: TA97, Metabolic Activation: HAMSTER, LIVER, S-9, AROCLOR 1254 (30%), Method: PREINCUBATION): active; positive
mutagenic call [1]: inactive; negative
mutagenic call [2]: inactive; negative
mutagenic call (Test System: AMES SALMONELLA TYPHIMURIUM, Strain/Indicator: TA98, Metabolic Activation: HAMSTER, LIVER, S-9, AROCLOR 1254 (30%), Method: PREINCUBATION): inactive; negative
mutagenic call [3]: inactive; negative
mutagenic call (Test System: AMES SALMONELLA TYPHIMURIUM, Strain/Indicator: TA98, Metabolic Activation: RAT, LIVER, S-9, AROCLOR 1254 (1O OR 30%), Method: PREINCUBATION): inactive; negative
mutagenic call (Test System: AMES SALMONELLA TYPHIMURIUM, Strain/Indicator: TA100, Metabolic Activation: HAMSTER, LIVER, S-9, AROCLOR 1254 (10%), Method: PREINCUBATION): inactive; negative
mutagenic call (Test System: AMES SALMONELLA TYPHIMURIUM, Strain/Indicator: TA100, Metabolic Activation: HAMSTER, LIVER, S-9, AROCLOR 1254 (30%), Method: PREINCUBATION): active; positive
mutagenic call [4]: inactive; negative
mutagenic call (Test System: AMES SALMONELLA TYPHIMURIUM, Strain/Indicator: TA100, Metabolic Activation: RAT, LIVER, S-9, AROCLOR 1254 (10%), Method: PREINCUBATION): inactive; negative
mutagenic call (Test System: AMES SALMONELLA TYPHIMURIUM, Strain/Indicator: TA100, Metabolic Activation: RAT, LIVER, S-9, AROCLOR 1254 (30%), Method: PREINCUBATION): inactive; negative
mutagenic call [5]: inactive; negative
mutagenic call [6]: inactive; negative
mutagenic call [7]: inactive; negative
mutagenic call (Test System: AMES SALMONELLA TYPHIMURIUM, Strain/Indicator: TA1537, Metabolic Activation: HAMSTER, LIVER, S-9, AROCLOR 1254 (30%), Method: PREINCUBATION): inactive; negative
mutagenic call (Test System: E. COLI, Strain/Indicator: WP2 UVRA, Metabolic Activation: HAMSTER, LIVER, S-9, AROCLOR 1254, Method: STANDARD PLATE): inactive; negative
mutagenic call (Test System: E. COLI, Strain/Indicator: WP2 UVRA, Metabolic Activation: HAMSTER, LIVER, S-9, Method: STANDARD PLATE): inactive; negative
mutagenic call (Test System: E. COLI, Strain/Indicator: WP2 UVRA, Metabolic Activation: MOUSE, LIVER, S-9, AROCLOR 1254, Method: STANDARD PLATE): inactive; negative
mutagenic call (Test System: E. COLI, Strain/Indicator: WP2 UVRA, Metabolic Activation: MOUSE, LIVER, S-9, Method: STANDARD PLATE): inactive; negative
mutagenic call (Test System: E. COLI, Strain/Indicator: WP2 UVRA, Metabolic Activation: NONE, Method: STANDARD PLATE): inactive; negative
mutagenic call (Test System: E. COLI, Strain/Indicator: WP2 UVRA, Metabolic Activation: RAT, LIVER, S-9, AROCLOR 1254, Method: STANDARD PLATE): inactive; negative
mutagenic call (Test System: E. COLI, Strain/Indicator: WP2 UVRA, Metabolic Activation: RAT, LIVER, S-9, Method: STANDARD PLATE): inactive; negative

CC(=O)c1cc(NC(=O)Nc2ccc(OCC(O)CNC(C)(C)C)c(C(C)=O)c2)ccc1OCC(O)CNC(C)(C)C (stereo unspecified)
mutagenic call [3]: inactive; negative
mutagenic call (Test System: AMES SALMONELLA TYPHIMURIUM, Strain/Indicator: TA98, Metabolic Activation: RAT, LIVER, S-9, PHENOBARBITAL AND 5,6-BENZOFLAVONE (10 OR 50 µL/PLATE), Method: PREINCUBATION): inactive; negative
mutagenic call [4]: inactive; negative
mutagenic call (Test System: AMES SALMONELLA TYPHIMURIUM, Strain/Indicator: TA100, Metabolic Activation: RAT, LIVER, S-9, PHENOBARBITAL AND 5,6-BENZOFLAVONE (10 OR 50 µL/PLATE), Method: PREINCUBATION): inactive; negative
mutagenic call [6]: inactive; negative
mutagenic call (Test System: AMES SALMONELLA TYPHIMURIUM, Strain/Indicator: TA1537, Metabolic Activation: NONE, Method: PREINCUBATION): inactive; negative
mutagenic call (Test System: AMES SALMONELLA TYPHIMURIUM, Strain/Indicator: TA1537, Metabolic Activation: RAT, LIVER, S-9, PHENOBARBITAL AND 5,6-BENZOFLAVONE (10 OR 50 µL/PLATE), Method: PREINCUBATION): inactive; negative
mutagenic call (Test System: E. COLI, Strain/Indicator: WP2 UVRA, Metabolic Activation: NONE, Method: PREINCUBATION): inactive; negative
mutagenic call (Test System: E. COLI, Strain/Indicator: WP2 UVRA, Metabolic Activation: RAT, LIVER, S-9, PHENOBARBITAL AND 5,6-BENZOFLAVONE (10 OR 50 µL/PLATE), Method: PREINCUBATION): inactive; negative

Cc1nc2ccc(NCCN(C)C)c3c(=O)c4cc(O)ccc4n1c23
mutagenic call (Test System: CHINESE HAMSTER V-79, Strain/Indicator: V-79 (HGPRT)/6-THIOGUANINE, Metabolic Activation: NONE): active; positive

Cc1ccc(N=[N+]([O-])c2ccc(C)c([N+](=O)[O-])c2)cc1[N+](=O)[O-]
mutagenic call (Test System: AMES SALMONELLA TYPHIMURIUM, Strain/Indicator: TA98, Metabolic Activation: NONE, Method: SUSPENSION/PLATE): inactive; negative
mutagenic call (Test System: AMES SALMONELLA TYPHIMURIUM, Strain/Indicator: TA98, Metabolic Activation: RAT, LIVER, S-9, PHENOBARBITAL AND 5,6-BENZOFLAVONE, Method: SUSPENSION/PLATE): inactive; negative
mutagenic call (Test System: AMES SALMONELLA TYPHIMURIUM, Strain/Indicator: TA100, Metabolic Activation: NONE, Method: SUSPENSION/PLATE): inactive; negative
mutagenic call (Test System: AMES SALMONELLA TYPHIMURIUM, Strain/Indicator: TA100, Metabolic Activation: RAT, LIVER, S-9, PHENOBARBITAL AND 5,6-BENZOFLAVONE, Method: SUSPENSION/PLATE): inactive; negative

Oc1ccc2cc3c4ccccc4c4ccccc4c3cc2c1
mutagenic call (Test System: AMES SALMONELLA TYPHIMURIUM, Strain/Indicator: TA100, Metabolic Activation: RAT, LIVER, S-9, AROCLOR 1254, Method: PREINCUBATION): active; positive
